# Experimental data: PubChem BioAssay AID226 (DTP/NCI, 2004)
# Several values for one entry are separate records, joined by “and”; a condition that tells them apart may be missing. Equal values may be shown once. Inconclusive results and toxic doses are left out.
# System: B6C3F1 mice, intracerebral ependymoblastoma, median survival T/C
# Assay: NCI In Vivo Anticancer Drug Screen. Data for tumor model Ependymoblastoma (intracerebral) in B6C3F1 mice
# Settings: endpoint: median survival time, higher = longer survival
# Protocol: The antitumor activity of compounds was measured in mice bearing transplantable tumors. Survival or tumor size were measured and the results are expressed as the measurement made in the treated group (T) divided by the measurement made in the vehicle treated control group (C). The tumor model used in this assay is Ependymoblastoma (intracerebral) in B6C3F1 mice
# [1] = dose: 32.0 mg/kg/injection, schedule: Q01DX005 (ip), vehicle: saline with Tween-80
smiles,measurement,setting,value
CN(N=O)C(N)=O,T/C,"dose: 0.5 mg/kg/injection, schedule: Q01DX005 (ip), vehicle: saline + alcohol",98 % of control and 101 % of control and 107 % of control
same,T/C,"dose: 1.56 mg/kg/injection, schedule: Q01DX009 (ip), vehicle: saline",161 % of control
same,T/C,"dose: 2.0 mg/kg/injection, schedule: Q#A X002 (ip), vehicle: saline + alcohol",115 % of control
same,T/C,"dose: 3.12 mg/kg/injection, schedule: Q01DX009 (ip), vehicle: saline",161 % of control
same,T/C,"dose: 4.0 mg/kg/injection, schedule: Q01DX001 (ip), vehicle: saline + alcohol",118 % of control and 120 % of control
same,T/C,"dose: 4.0 mg/kg/injection, schedule: Q01DX005 (oral), vehicle: saline + alcohol",150 % of control
same,T/C,"dose: 4.0 mg/kg/injection, schedule: Q## X006 (ip), vehicle: saline + alcohol",156 % of control
same,T/C,"dose: 4.0 mg/kg/injection, schedule: Q#A X002 (ip), vehicle: saline + alcohol",113 % of control
same,T/C,"dose: 6.25 mg/kg/injection, schedule: Q01DX009 (ip), vehicle: saline",164 % of control
same,T/C,"dose: 8.0 mg/kg/injection, schedule: Q01DX001 (ip), vehicle: saline + alcohol",121 % of control
same,T/C,"dose: 8.0 mg/kg/injection, schedule: Q## X004 (ip), vehicle: saline + alcohol",150 % of control
same,T/C,"dose: 8.0 mg/kg/injection, schedule: Q## X006 (ip), vehicle: saline + alcohol",156 % of control
same,T/C,"dose: 10.0 mg/kg/injection, schedule: Q01DX001 (ip), vehicle: saline + alcohol",157 % of control
same,T/C,"dose: 16.0 mg/kg/injection, schedule: Q01DX001 (oral), vehicle: saline + alcohol",123 % of control
same,T/C,"dose: 16.0 mg/kg/injection, schedule: Q01DX005 (ip), vehicle: Klucel (hydroxypropylcellulose) (HPC)",118 % of control
same,T/C,"dose: 16.0 mg/kg/injection, schedule: Q01DX005 (oral), vehicle: saline + alcohol",150 % of control
same,T/C,"dose: 16.0 mg/kg/injection, schedule: Q## X006 (ip), vehicle: saline + alcohol",162 % of control
same,T/C,"dose: 20.0 mg/kg/injection, schedule: Q01DX001 (ip), vehicle: saline + alcohol",157 % of control
same,T/C,"dose: 32.0 mg/kg/injection, schedule: Q01DX001 (ip), vehicle: saline + alcohol",116 % of control
same,T/C,"dose: 32.0 mg/kg/injection, schedule: Q01DX001 (oral), vehicle: saline + alcohol",118 % of control
same,T/C,"dose: 32.0 mg/kg/injection, schedule: Q01DX005 (oral), vehicle: saline + alcohol",94 % of control
same,T/C,"dose: 32.0 mg/kg/injection, schedule: Q## X004 (ip), vehicle: saline + alcohol",178 % of control
same,T/C,"dose: 40.0 mg/kg/injection, schedule: Q01DX001 (ip), vehicle: saline + alcohol",161 % of control
same,T/C,"dose: 40.0 mg/kg/injection, schedule: Q01DX001 (ip), vehicle: saline",122 % of control
same,T/C,"dose: 64.0 mg/kg/injection, schedule: Q01DX001 (oral), vehicle: saline + alcohol",111 % of control
same,T/C,"dose: 80.0 mg/kg/injection, schedule: Q01DX001 (ip), vehicle: saline + alcohol",183 % of control
same,T/C,"dose: 128.0 mg/kg/injection, schedule: Q01DX001 (oral), vehicle: saline + alcohol",107 % of control and 121 % of control
same,T/C,"dose: 256.0 mg/kg/injection, schedule: Q01DX001 (oral), vehicle: saline + alcohol",112 % of control
COC(=O)C(Cc1ccc(N(CCCl)CCCl)cc1)N=NNc1nc[nH]c1C(N)=O (stereo not drawn),T/C,"dose: 4.0 mg/kg/injection, schedule: Q01DX005 (ip), vehicle: saline with Tween-80",107 % of control
same,T/C,"dose: 8.0 mg/kg/injection, schedule: Q01DX005 (ip), vehicle: saline with Tween-80",101 % of control and 112 % of control
same,T/C,"dose: 16.0 mg/kg/injection, schedule: Q01DX005 (ip), vehicle: saline with Tween-80",104 % of control and 118 % of control
same,T/C,[1],123 % of control
COc1nc(C(Cl)(Cl)Cl)c(Cl)c(OC)c1Cl,T/C,"dose: 25.0 mg/kg/injection, schedule: Q01DX005 (ip), vehicle: Klucel (hydroxypropylcellulose) (HPC)",94 % of control
same,T/C,"dose: 50.0 mg/kg/injection, schedule: Q01DX005 (ip), vehicle: Klucel (hydroxypropylcellulose) (HPC)",107 % of control
same,T/C,"dose: 100.0 mg/kg/injection, schedule: Q01DX005 (ip), vehicle: Klucel (hydroxypropylcellulose) (HPC)",114 % of control
C[CH2][Ge]1([CH2]C)[CH2]CC2(CCN(CCCN(C)C)C2)C[CH2]1,T/C,"dose: 8.0 mg/kg/injection, schedule: Q01DX005 (ip), vehicle: saline",94 % of control and 103 % of control
same,T/C,"dose: 16.0 mg/kg/injection, schedule: Q01DX005 (ip), vehicle: saline",96 % of control and 104 % of control and 107 % of control
CCC(C)N(C)/N=N/c1nc[nH]c1C(N)=O (stereo not drawn),T/C,[1],151 % of control
same,T/C,"dose: 64.0 mg/kg/injection, schedule: Q01DX005 (ip), vehicle: saline with Tween-80",153 % of control
same,T/C,"dose: 128.0 mg/kg/injection, schedule: Q01DX005 (ip), vehicle: saline with Tween-80",153 % of control
O=c1n(CC2CO2)c(=O)n(CC2CO2)c(=O)n1CC1CO1 (stereo not drawn),T/C,"dose: 16.4 mg/kg/injection, schedule: Q01DX004 (ip), vehicle: saline",113 % of control
same,T/C,"dose: 16.4 mg/kg/injection, schedule: Q01DX009 (ip), vehicle: saline",107 % of control
same,T/C,"dose: 20.0 mg/kg/injection, schedule: Q01DX009 (ip), vehicle: saline",117 % of control and 119 % of control
same,T/C,"dose: 20.5 mg/kg/injection, schedule: Q01DX004 (ip), vehicle: saline",111 % of control
same,T/C,"dose: 20.5 mg/kg/injection, schedule: Q01DX009 (ip), vehicle: saline",112 % of control
same,T/C,"dose: 25.0 mg/kg/injection, schedule: Q01DX005 (ip), vehicle: saline with Tween-80",98 % of control
same,T/C,"dose: 25.6 mg/kg/injection, schedule: Q01DX004 (ip), vehicle: saline",107 % of control
same,T/C,"dose: 25.6 mg/kg/injection, schedule: Q01DX009 (ip), vehicle: saline",113 % of control
same,T/C,"dose: 30.0 mg/kg/injection, schedule: Q01DX009 (ip), vehicle: saline",165 % of control
same,T/C,"dose: 32.0 mg/kg/injection, schedule: Q01DX004 (ip), vehicle: saline",115 % of control
same,T/C,"dose: 32.0 mg/kg/injection, schedule: Q01DX009 (ip), vehicle: saline",121 % of control
same,T/C,"dose: 49.2 mg/kg/injection, schedule: Q01DX001 (ip), vehicle: saline",95 % of control
same,T/C,"dose: 50.0 mg/kg/injection, schedule: Q01DX009 (ip), vehicle: saline",113 % of control
same,T/C,"dose: 61.4 mg/kg/injection, schedule: Q01DX001 (ip), vehicle: saline",109 % of control
same,T/C,"dose: 76.8 mg/kg/injection, schedule: Q01DX001 (ip), vehicle: saline",112 % of control
same,T/C,"dose: 96.0 mg/kg/injection, schedule: Q01DX001 (ip), vehicle: saline",106 % of control
same,T/C,"dose: 120.0 mg/kg/injection, schedule: Q01DX001 (ip), vehicle: saline",121 % of control
same,T/C,"dose: 150.0 mg/kg/injection, schedule: Q01DX001 (ip), vehicle: saline",119 % of control
CCOC(=O)CC(SP(=S)(OC)OC)C(=O)OCC (stereo not drawn),T/C,"dose: 25.0 mg/kg/injection, schedule: Q01DX005 (ip), vehicle: suspension in saline",100 % of control
same,T/C,"dose: 50.0 mg/kg/injection, schedule: Q01DX005 (ip), vehicle: suspension in saline",124 % of control
same,T/C,"dose: 100.0 mg/kg/injection, schedule: Q01DX005 (ip), vehicle: suspension in saline",101 % of control
same,T/C,"dose: 200.0 mg/kg/injection, schedule: Q01DX005 (ip), vehicle: suspension in saline",105 % of control
CCSc1ncnc2c1ncn2C1OC(CO)C(O)C1O (stereo not drawn),T/C,"dose: 50.0 mg/kg/injection, schedule: Q01DX005 (ip), vehicle: saline with Tween-80",100 % of control and 106 % of control and 122 % of control
same,T/C,"dose: 100.0 mg/kg/injection, schedule: Q01DX005 (ip), vehicle: saline with Tween-80",103 % of control and 106 % of control
same,T/C,"dose: 200.0 mg/kg/injection, schedule: Q01DX005 (ip), vehicle: saline with Tween-80",107 % of control and 109 % of control
Nc1nc(=S)c2ncn(C3OC(COC(=O)c4ccc(Cl)cc4)C(OC(=O)c4ccc(Cl)cc4)C3OC(=O)c3ccc(Cl)cc3)c2[nH]1 (stereo not drawn),T/C,"dose: 18.75 mg/kg/injection, schedule: Q01DX005 (ip), vehicle: Klucel (hydroxypropylcellulose) (HPC)",101 % of control
same,T/C,"dose: 37.5 mg/kg/injection, schedule: Q01DX005 (ip), vehicle: Klucel (hydroxypropylcellulose) (HPC)",102 % of control
same,T/C,"dose: 75.0 mg/kg/injection, schedule: Q01DX005 (ip), vehicle: Klucel (hydroxypropylcellulose) (HPC)",98 % of control and 115 % of control
